From EPA's ToxRefDB 2

How the values were obtained:
[1] = system: mouse; conditions: Carcinogenicity, other, Oral, Gavage/Intubation, dose end: 106 week, group: systemic
[2] = system: rat; conditions: Chronic toxicity, wistar, Oral, Gavage/Intubation, dose end: 6 month, group: systemic
[3] = system: rat; conditions: Peri- and post-natal toxicity study (Segment III); wistar; Injection; Intravenous; dose end: 21 PND; group: parental; systemic / in life observation / body weight / body weight gain + systemic / in life observation / clinical signs / motor activity + …
[4] = system: dog; conditions: Chronic toxicity, beagle, Oral, Capsule, dose end: 6 month, group: systemic
[5] = system: rat; conditions: Fertility (Segment I); wistar; Injection; Intravenous; dose end: 7 GD; group: parental; systemic / in life observation / clinical signs / motor activity + systemic / in life observation / clinical signs / urine, discoloration + …
[6] = system: mouse; conditions: Fertility (Segment I); other; Injection; Intravenous; dose end: 3 GD; group: parental; systemic / in life observation / clinical signs / motor activity
[7] = system: dog; conditions: Chronic toxicity, beagle, Oral, Capsule, dose end: 1 year, group: systemic
[8] = system: rat; conditions: Subchronic oral toxicity in rodents, wistar, Gavage/Intubation, dose end: 3 month, group: systemic
[9] = system: rat; conditions: Fertility (Segment I), wistar, Oral, Gavage/Intubation, dose end: 7 GD
[10] = system: rat; conditions: Prenatal developmental toxicity study; wistar; Injection; Intravenous; dose end: 18 GD; group: maternal; systemic / in life observation / body weight / body weight gain + systemic / in life observation / clinical signs / motor activity + …
[11] = system: rabbit; conditions: Prenatal developmental toxicity study, new zealand white, Oral, Gavage/Intubation, dose end: 19 GD, group: maternal
[12] = system: mouse; conditions: Carcinogenicity, cd1, Oral, Feed, dose end: 24 month, group: systemic
[13] = system: rat; conditions: Subchronic oral toxicity in rodents, sprague dawley, Feed, dose end: 90 day, group: systemic, systemic / organ weight / adrenal gland / absolute + systemic / organ weight / adrenal gland / relative to body weight + systemic / organ …
[14] = system: rat; conditions: Chronic toxicity, sprague dawley, Oral, Feed, dose end: 104 week, group: systemic
[15] = system: rat; conditions: Multigenerational reproductive toxicity study, sprague dawley, Oral, Feed, dose end: 2 generation
[16] = system: mouse; conditions: Carcinogenicity, cd1, Oral, Feed, dose end: 104 week, group: systemic
[17] = system: rat; conditions: Subchronic oral toxicity in rodents, fischer, Feed, dose end: 90 day, group: systemic, systemic / organ weight / kidney / absolute + systemic / organ weight / kidney / relative to body weight + systemic / pathology gross / …
[18] = system: rat; conditions: Chronic toxicity, fischer, Oral, Feed, dose end: 104 week, group: systemic
[19] = system: dog; conditions: Subchronic oral toxicity in nonrodent, beagle, Capsule, dose end: 102 day, group: systemic
[20] = systemic / hematology / erythrocyte (rbc) count differential / erythrocyte (rbc) + systemic / hematology / hematocrit (hct) / hematocrit (…
[21] = systemic / hematology / leukocyte (wbc) count differential / leukocyte (wbc) + systemic / organ weight / kidney / relative to body weight
[22] = systemic / hematology / reticulocyte / reticulocyte + systemic / in life observation / clinical signs / teeth whitening + systemic / in life…
[23] = systemic / in life observation / clinical signs / tooth-broken
[24] = systemic / clinical chemistry / alanine aminotransferase (alt/sgpt) / alanine aminotransferase (alt/sgpt)
[25] = systemic / clinical chemistry / alanine aminotransferase (alt/sgpt) / alanine aminotransferase (alt/sgpt) + systemic / in life observation…
[26] = systemic / clinical chemistry / alanine aminotransferase (alt/sgpt) / alanine aminotransferase (alt/sgpt) + systemic / clinical chemistry / …
[27] = systemic / clinical chemistry / alkaline phosphatase (alp/alk) / alkaline phosphatase (alp/alk) + systemic / clinical chemistry / calcium / …
[28] = systemic / clinical chemistry / glucose / glucose + systemic / hematology / hemoglobin (hgb) / hemoglobin (hgb) + systemic / hematology / …
[29] = group: maternal, reproductive / reproductive performance / estrous cycle / corpora lutea + reproductive / reproductive performance / implantations / …
[30] = group: parental, systemic / in life observation / body weight / body weight + systemic / in life observation / clinical signs / ataxia + systemic / in life …
[31] = systemic / in life observation / clinical signs / anorexia + systemic / in life observation / clinical signs / no feces
[32] = systemic / organ weight / liver / relative to body weight
[33] = systemic / clinical chemistry / potassium / potassium
[34] = systemic / clinical chemistry / potassium / potassium + systemic / clinical chemistry / albumin / albumin + systemic / clinical chemistry / …
[35] = group: offspring, systemic / in life observation / body weight / offspring (pup) weight
[36] = group: parental, systemic / pathology microscopic / stomach / hyperkeratosis + systemic / pathology microscopic / stomach / hyperplasia + systemic / …
[37] = systemic / pathology microscopic / kidney / hyperplasia + systemic / pathology microscopic / stomach / carcinoma + systemic / pathology …
[38] = systemic / pathology microscopic / kidney / hyperplasia + systemic / pathology microscopic / kidney / karyomegaly + systemic / in life …
[39] = systemic / pathology microscopic / kidney / karyomegaly

**Q.** Which results are given for `CC(C)c1ccc(C(=O)N=C(N)N)cc1S(C)(=O)=O.CS(=O)(=O)O` [Cariporide mesylate]?
**A.** LOAEL [1, 20]: > 500 mg/kg/day; NOAEL [1, 20]: ≥ 500 mg/kg/day; LEL [1, 21]: 50 mg/kg/day; NEL [1, 21]: < 50 mg/kg/day; LOAEL [2, 22]: 25 mg/kg/day; NOAEL [2, 22]: 5 mg/kg/day; LEL [2, 23]: 5 mg/kg/day; NEL [2, 23]: < 5 mg/kg/day; LEL [3]: 125 mg/kg/day; LOAEL [3]: > 125 mg/kg/day; NEL [3]: 5 mg/kg/day; NOAEL [3]: ≥ 125 mg/kg/day; LEL [4, 24]: 8 mg/kg/day; LOAEL [4, 25]: > 20 mg/kg/day; NEL [4, 25]: 3.2 mg/kg/day; NOAEL [4, 25]: ≥ 20 mg/kg/day; LEL [5]: 100 mg/kg/day; LOAEL [5]: > 100 mg/kg/day; NEL [5]: 25 mg/kg/day; NOAEL [5]: ≥ 100 mg/kg/day; LEL [6]: 150 mg/kg/day; LOAEL [6]: > 150 mg/kg/day; NEL [6]: 50 mg/kg/day; NOAEL [6]: ≥ 150 mg/kg/day; LEL [7, 24]: 3.2 mg/kg/day; NEL [7, 24]: < 3.2 mg/kg/day; LOAEL [7, 26]: > 20 mg/kg/day; NOAEL [7, 26]: ≥ 20 mg/kg/day; LOAEL [8, 27]: > 1000 mg/kg/day; NOAEL [8, 27]: ≥ 1000 mg/kg/day; LEL [8, 28]: 400 mg/kg/day; NEL [8, 28]: < 400 mg/kg/day; LEL [9, 29]: 400 mg/kg/day; LOAEL [9, 29]: > 400 mg/kg/day; NEL [9, 29]: 100 mg/kg/day; NOAEL [9, 29]: ≥ 400 mg/kg/day; LOAEL [9, 30]: > 400 mg/kg/day; NEL [9, 30]: 25 mg/kg/day; NOAEL [9, 30]: ≥ 400 mg/kg/day; LEL ([9]; group: parental, systemic / in life observation / clinical signs / salivation): 100 mg/kg/day; LEL [10]: 125 mg/kg/day; LOAEL [10]: > 125 mg/kg/day; NEL [10]: 25 mg/kg/day; NOAEL [10]: ≥ 125 mg/kg/day

**Q.** How did the LOAEL ([11]; systemic / in life observation / body weight / body weight gain + systemic / in life observation / food consumption / food consumption) turn out when `N#Cc1c(Cl)c(Cl)c(Cl)c(C#N)c1Cl` [Chlorothalonil] was run?
**A.** 500 mg/kg/day

**Q.** And the NOAEL ([11]; systemic / in life observation / body weight / body weight gain + systemic / in life observation / food consumption / food consumption + …)?
**A.** 250 mg/kg/day

**Q.** What about the LEL [11, 31] of the same molecule?
**A.** 250 mg/kg/day

**Q.** What about the NEL [11, 31] of the same molecule?
**A.** < 250 mg/kg/day

**Q.** What about the LOAEL ([12]; systemic / in life observation / body weight / body weight) of the same molecule?
**A.** 225 mg/kg/day

**Q.** And the NOAEL ([12]; systemic / in life observation / body weight / body weight + systemic / hematology / erythrocyte (rbc) count differential / erythrocyte (rbc…)?
**A.** 112 mg/kg/day

**Q.** What about the LEL [12, 32] of the same molecule?
**A.** 56.2 mg/kg/day

**Q.** And the NEL [12, 32]?
**A.** < 56.2 mg/kg/day

**Q.** And the LEL [13]?
**A.** 250 mg/kg/day

**Q.** What about the LOAEL [13] of the same molecule?
**A.** 750 mg/kg/day

**Q.** And the NEL [13]?
**A.** < 250 mg/kg/day

**Q.** What about the NOAEL [13] of the same molecule?
**A.** 250 mg/kg/day

**Q.** What about the LEL [14, 33] of the same molecule?
**A.** 0.5 mg/kg/day

**Q.** What about the NEL [14, 33] of the same molecule?
**A.** < 0.5 mg/kg/day

**Q.** What about the LOAEL [14, 34] of the same molecule?
**A.** 10 mg/kg/day

**Q.** And the NOAEL [14, 34]?
**A.** 3 mg/kg/day

**Q.** What about the LEL [15, 35] of the same molecule?
**A.** 38 mg/kg/day

**Q.** And the LOAEL [15, 35]?
**A.** 234 mg/kg/day

**Q.** What about the NEL [15, 35] of the same molecule?
**A.** < 38 mg/kg/day

**Q.** And the NOAEL [15, 35]?
**A.** 115 mg/kg/day

**Q.** What about the LEL [15, 36] of the same molecule?
**A.** 38 mg/kg/day

**Q.** What about the LOAEL [15, 36] of the same molecule?
**A.** 38 mg/kg/day

**Q.** And the NEL [15, 36]?
**A.** < 38 mg/kg/day

**Q.** What about the NOAEL [15, 36] of the same molecule?
**A.** < 38 mg/kg/day

**Q.** What about the LOAEL ([16]; systemic / pathology microscopic / kidney / hyperplasia) of the same molecule?
**A.** 26.2 mg/kg/day

**Q.** And the NEL [16, 37]?
**A.** 1.5 mg/kg/day

**Q.** What about the NOAEL [16, 37] of the same molecule?
**A.** 6 mg/kg/day

**Q.** And the LEL ([16]; systemic / pathology microscopic / stomach / hyperkeratosis + systemic / pathology microscopic / stomach / hyperplasia)?
**A.** 6 mg/kg/day

**Q.** What about the LEL [17] of the same molecule?
**A.** 175 mg/kg/day

**Q.** What about the LOAEL [17] of the same molecule?
**A.** 175 mg/kg/day

**Q.** And the NEL [17]?
**A.** < 175 mg/kg/day

**Q.** And the NOAEL [17]?
**A.** < 175 mg/kg/day

**Q.** And the LOAEL [18, 38]?
**A.** 175 mg/kg/day

**Q.** What about the NOAEL [18, 38] of the same molecule?
**A.** 15 mg/kg/day

**Q.** What about the LEL [18, 39] of the same molecule?
**A.** 1.5 mg/kg/day

**Q.** What about the NEL [18, 39] of the same molecule?
**A.** < 1.5 mg/kg/day

**Q.** What about the LEL ([19]; systemic / clinical chemistry / glucose / glucose) of the same molecule?
**A.** 15 mg/kg/day

**Q.** And the LOAEL ([19]; systemic / clinical chemistry / glucose / glucose + systemic / organ weight / liver / absolute + systemic / urinalysis / ph / ph)?
**A.** 50 mg/kg/day

**Q.** And the NOAEL ([19]; systemic / clinical chemistry / glucose / glucose + systemic / organ weight / liver / absolute + systemic / urinalysis / ph / ph + systemic…)?
**A.** 15 mg/kg/day

**Q.** And the NEL ([19]; systemic / clinical chemistry / glucose / glucose + systemic / urinalysis / ph / ph + systemic / hematology / erythrocyte (rbc) count …)?
**A.** 5 mg/kg/day
